Experimental data reported in patent publication US20240116985A1, “STAPLED PEPTIDES AND METHODS THEREOF” (priority 2020, published 2024).

Test: CHI Log D procedure
Format: physicochemical
Details: pH 7.4

Compared with CCCC[C@@H]1NC(=O)[C@H](CC(=O)O)NC(=O)C2(CCCC=CCCCCCC[C@@](C)(C(=O)N[C@@H](Cc3ccccc3)C(=O)N[C@@H](Cc3c[nH]c4ccccc34)C(=O)N[C@@H](CCC(N)=O)C(N)=O)NC(=O)[C@H](C(C)C)NC(=O)[C@H](Cc3ccccc3)NC(=O)[C@H](C)NC(=O)[C@H](C)NC1=O)CCCC=CC[C@]1(CCCN1C(C)=O)C(=O)N[C@@H](CC(=O)O)C(=O)N[C@@H](C)C(=O)N2 (single isomer, unassigned) [I-139, Ac-PL3-Asp-Ala-B5-Asp-nLeu-Ala-Ala-Phe-Val-S8-Phe-Trp-Gln-NH2], CC(=O)N1CCC[C@]12CC=CCCCC1(CCCC=CCCCCCC[C@@](C)(C(=O)N[C@@H](Cc3ccccc3)C(=O)N[C@@H](Cc3c[nH]c4ccccc34)C(=O)N[C@@H](CO)C(N)=O)NC(=O)[C@H](C(C)C)NC(=O)[C@H](Cc3ccccc3)NC(=O)[C@H](C)NC(=O)[C@H](C)NC(=O)[C@H](CC(=O)O)NC(=O)[C@H](CC(=O)O)NC1=O)NC(=O)[C@H](C)NC(=O)[C@H](CC(=O)O)NC2=O (single isomer, unassigned) [I-335, Ac-PL3-Asp-Ala-B5-Asp-Asp-Ala-Ala-Phe-Val-S8-Phe-WCHO-Ser-NH2] is lower in “CHI Log D” value: 2.834 for the first, 1.928 for the second.

Going from CC(=O)N[C@@H](Cc1ccccc1)C(=O)N[C@@H](CC(=O)O)C(=O)N[C@@H](C)C(=O)N[C@]1(C)CCCCCCC=CCOC(=O)N2CC[C@@](C(=O)N[C@@H](CCC(=O)O)C(=O)N[C@@H](Cc3c[nH]c4ccccc34)C(=O)N[C@@H](CCC(N)=O)C(N)=O)(C2)NC(=O)[C@H](C(C)C)NC(=O)[C@H](Cc2ccccc2)NC(=O)[C@H](C)NC(=O)[C@H](C)NC(=O)[C@H](CC(=O)O)NC(=O)[C@H](CC(=O)O)NC1=O (single isomer, unassigned) [I-162, Ac-Phe-Asp-Ala-R8-Asp-Asp-Ala-Ala-Phe-Val-PyrS-Glu-Trp-Gln-NH2] to CC(=O)N[C@@H](Cc1ccccc1)C(=O)N[C@@H](CC(=O)O)C(=O)N[C@@H](C)C(=O)N[C@]1(C)CCCCCCC=CCOC(=O)N2CC[C@@](C(=O)N[C@@H](Cc3ccccc3)C(=O)N[C@@H](Cc3c[nH]c4ccccc34)C(=O)N[C@@H](CCC(N)=O)C(N)=O)(C2)NC(=O)[C@H](C(C)C)NC(=O)[C@H](Cc2ccccc2)NC(=O)[C@H](C)NC(=O)[C@H](C)NC(=O)[C@H](CCC(=O)O)NC(=O)[C@H](CC(=O)O)NC1=O [I-3, Ac-Phe-Asp-Ala-R8-Asp-Glu-Ala-Ala-Phe-Val-PyrS-Phe-Trp-Gln-NH2], the “CHI Log D” value rises from 0.827 to 1.307.

Going from CC(=O)N1CCC[C@]12CC=CCCCC1(CCCC=CCCCCCC[C@@](C)(C(=O)N[C@@H](Cc3ccccc3)C(=O)N[C@@H](Cc3c[nH]c4ccccc34)C(=O)N[C@@H](CCC(N)=O)C(N)=O)NC(=O)[C@H](C(C)C)NC(=O)[C@H](Cc3ccccc3)NC(=O)[C@H](C)NC(=O)[C@H](C)NC(=O)[C@@](C)(CC(C)C)NC(=O)[C@H](CC(=O)O)NC1=O)NC(=O)[C@H](C)NC(=O)[C@H](CC(=O)O)NC2=O (single isomer, unassigned) [I-216, Ac-PL3-Asp-Ala-B5-Asp-DaMeL-Ala-Ala-Phe-Val-S8-Phe-Trp-Gln-NH2] to CCCC[C@@H]1NC(=O)[C@H](CC(=O)O)NC(=O)[C@](C)(NC(=O)[C@H](C)NC(=O)[C@H](CC(=O)O)NC(=O)[C@H](Cc2ccccc2)NC(C)=O)CCCCCCC=CCOC(=O)N2CC[C@@](C(=O)N[C@@H](Cc3ccccc3)C(=O)N[C@@H](Cc3c[nH]c4ccccc34)C(=O)N[C@@H](CCC(N)=O)C(N)=O)(C2)NC(=O)[C@H](C(C)C)NC(=O)[C@H](Cc2ccccc2)NC(=O)[C@H](C)NC(=O)[C@H](C)NC1=O [I-14, Ac-Phe-Asp-Ala-R8-Asp-nLeu-Ala-Ala-Phe-Val-PyrS-Phe-Trp-Gln-NH2], the “CHI Log D” value falls from 2.867 to 2.013.

For CC(=O)N[C@@H](Cc1ccccc1)C(=O)N[C@@H](CC(=O)O)C(=O)N[C@@H](C)C(=O)N[C@]1(C)CCCCCCC=CCOC(=O)N2CC[C@@](C(=O)N[C@@H](Cc3ccccc3)C(=O)N[C@@H](Cc3c[nH]c4ccccc34)C(=O)N[C@@H](CCC(N)=O)C(N)=O)(C2)NC(=O)[C@H](C(C)C)NC(=O)[C@H](Cc2ccccc2)NC(=O)[C@H](C)NC(=O)[C@H](C)NC(=O)[C@H](CCC(=O)O)NC(=O)[C@H](CC(=O)O)NC1=O [I-4, Ac-Phe-Asp-Ala-R8-Asp-Glu-Ala-Ala-Phe-Val-PyrS-Phe-Trp-Gln-NH2], the “CHI Log D” value was 1.353.

Same assay, conditions: pH 7.4, CHI Log D

Going from CC(=O)N[C@@H](Cc1ccccc1)C(=O)N[C@@H](CC(=O)O)C(=O)N[C@@H](C)C(=O)N[C@]1(C)CCCCCCC=CCOC(=O)N2CC[C@@](C(=O)N[C@@H](Cc3ccccc3)C(=O)N[C@@H](Cc3c[nH]c4ccccc34)C(=O)N[C@@H](CCC(N)=O)C(N)=O)(C2)NC(=O)[C@H](C(C)C)NC(=O)[C@H](CCc2ccccc2)NC(=O)[C@H](C)NC(=O)[C@H](C)NC(=O)[C@H](CC(=O)O)NC(=O)[C@H](CC(=O)O)NC1=O (single isomer, unassigned) [I-117, Ac-Phe-Asp-Ala-R8-Asp-Asp-Ala-Ala-hPhe-Val-PyrS-Phe-Trp-Gln-NH2] to CC(=O)N[C@@H](Cc1ccccc1)C(=O)N[C@@H](CC(=O)O)C(=O)N[C@@H](C)C(=O)N[C@]1(C)CCCCCCC=CCOC(=O)N2CC[C@@](C(=O)N[C@@H](CC(=O)O)C(=O)N[C@@H](Cc3c[nH]c4ccccc34)C(=O)N[C@@H](CCC(N)=O)C(N)=O)(C2)NC(=O)[C@H](C(C)C)NC(=O)[C@H](Cc2ccccc2)NC(=O)[C@H](C)NC(=O)[C@H](C)NC(=O)[C@H](CC(=O)O)NC(=O)[C@H](CC(=O)O)NC1=O (single isomer, unassigned) [I-122, Ac-Phe-Asp-Ala-R8-Asp-Asp-Ala-Ala-Phe-Val-PyrS-Asp-Trp-Gln-NH2], the chromatographic logD falls from 1.33 to 0.84.

Going from CCCC[C@@H]1NC(=O)[C@H](CC(=O)O)NC(=O)C2(CCCC=CCCCCCC[C@@](C)(C(=O)N[C@@H](Cc3ccccc3)C(=O)N[C@@H](Cc3c[nH]c4ccccc34)C(=O)N[C@@H](CCC(N)=O)C(N)=O)NC(=O)[C@H](C(C)C)NC(=O)[C@H](Cc3ccccc3)NC(=O)[C@H](C)NC(=O)[C@H](C)NC1=O)CCCC=CC[C@]1(CCCN1C(C)=O)C(=O)N[C@@H](CC(=O)O)C(=O)N[C@@H](C)C(=O)N2 (single isomer, unassigned) [I-138, Ac-PL3-Asp-Ala-B5-Asp-nLeu-Ala-Ala-Phe-Val-S8-Phe-Trp-Gln-NH2] to CC(=O)N1CCC[C@]12CC=CCCCC1(CCCC=CCCCCCC[C@@](C)(C(=O)N[C@@H](Cc3ccccc3)C(=O)N[C@@H](Cc3c[nH]c4ccccc34)C(=O)N[C@@H](CCC(N)=O)C(N)=O)NC(=O)[C@H](C(C)C)NC(=O)[C@H](Cc3ccccc3)NC(=O)[C@H](C)NC(=O)[C@H](C)NC(=O)[C@H](CCC(=O)O)NC(=O)[C@H](CC(=O)O)NC1=O)NC(=O)[C@H](C)NC(=O)[C@H](Cc1c[nH]cn1)NC2=O (single isomer, unassigned) [I-314, Ac-PL3-His-Ala-B5-Asp-Glu-Ala-Ala-Phe-Val-S8-Phe-Trp-Gln-NH2], the chromatographic logD rises from 1.81 to 2.34.

Compared with CC(=O)N[C@@H](Cc1ccccc1)C(=O)N[C@@H](CC(=O)O)C(=O)N[C@@H](C)C(=O)N[C@]1(C)CCCCCCC=CCOC(=O)N2CC[C@@](C(=O)N[C@@H](CCC(=O)O)C(=O)N[C@@H](Cc3c[nH]c4ccccc34)C(=O)N[C@@H](CCC(N)=O)C(N)=O)(C2)NC(=O)[C@H](C(C)C)NC(=O)[C@H](Cc2ccccc2)NC(=O)[C@H](C)NC(=O)[C@H](C)NC(=O)[C@H](CC(=O)O)NC(=O)[C@H](CC(=O)O)NC1=O (single isomer, unassigned) [I-161, Ac-Phe-Asp-Ala-R8-Asp-Asp-Ala-Ala-Phe-Val-PyrS-Glu-Trp-Gln-NH2], CC(=O)N1CCC[C@]12CC=CCCCC1(CCCC=CCCCCCC[C@@](C)(C(=O)N[C@@H](Cc3ccccc3)C(=O)N[C@@H](Cc3c[nH]c4ccccc34)C(=O)N[C@@H](CCC(N)=O)C(N)=O)NC(=O)[C@H](C(C)C)NC(=O)[C@H](Cc3ccccc3)NC(=O)[C@H](C)NC(=O)[C@H](C)NC(=O)[C@@](C)(CC(C)C)NC(=O)[C@H](CC(=O)O)NC1=O)NC(=O)[C@H](C)NC(=O)[C@H](CC(=O)O)NC2=O (single isomer, unassigned) [I-215, Ac-PL3-Asp-Ala-B5-Asp-DaMeL-Ala-Ala-Phe-Val-S8-Phe-Trp-Gln-NH2] is higher in chromatographic logD: 0.816 for the first, 2.87 for the second.

CC(=O)N1CCC[C@]12CC=CCCCC1(CCCC=CCCCCCC[C@@](C)(C(=O)N[C@@H](Cc3ccc(Cl)cc3)C(=O)N[C@@H](Cc3c[nH]c4ccccc34)C(=O)N[C@@H](CCC(N)=O)C(N)=O)NC(=O)[C@H](C(C)C)NC(=O)[C@H](Cc3ccccc3)NC(=O)[C@H](C)NC(=O)[C@H](C)NC(=O)[C@H](CC(=O)O)NC(=O)[C@H](CC(=O)O)NC1=O)NC(=O)[C@H](C)NC(=O)[C@H](CC(=O)O)NC2=O (single isomer, unassigned) [I-312, Ac-PL3-Asp-Ala-B5-Asp-Asp-Ala-Ala-Phe-Val-S8-4C1F-Trp-Gln-NH2] and CC(=O)N1CCC[C@]12CC=CCCCC1(CCCC=CCCCCCC[C@@](C)(C(=O)N[C@@H](Cc3ccccc3)C(=O)N[C@@H](Cc3c[nH]c4ccccc34)C(=O)N[C@@H](CCC(N)=O)C(N)=O)NC(=O)[C@H](C(C)C)NC(=O)[C@H](Cc3c[nH]cn3)NC(=O)[C@H](C)NC(=O)[C@H](C)NC(=O)[C@H](CC(=O)O)NC(=O)[C@H](CC(=O)O)NC1=O)NC(=O)[C@H](C)NC(=O)[C@H](CC(=O)O)NC2=O (single isomer, unassigned) [I-320, Ac-PL3-Asp-Ala-B5-Asp-Asp-Ala-Ala-His-Val-S8-Phe-Trp-Gln-NH2] are within 0.2 log units of each other in chromatographic logD: 2.13 for the first, 2.04 for the second.

For CC(=O)N1CCC[C@]12CC=CCCCC1(CCCC=CCCCCCC[C@@](C)(C(=O)N[C@@H](Cc3ccccc3)C(=O)N[C@@H](Cc3c[nH]c4ccccc34)C(=O)N[C@@H](CO)C(N)=O)NC(=O)[C@H](C(C)C)NC(=O)[C@H](Cc3ccccc3)NC(=O)[C@H](C)NC(=O)[C@H](C)NC(=O)[C@H](CC(=O)O)NC(=O)[C@H](CC(=O)O)NC1=O)NC(=O)[C@H](C)NC(=O)[C@H](CC(=O)O)NC2=O (single isomer, unassigned) [I-334, Ac-PL3-Asp-Ala-B5-Asp-Asp-Ala-Ala-Phe-Val-S8-Phe-WCHO-Ser-NH2], the logD was 1.86.
